# Experimental data as given in PubChem BioAssay (NCI).
#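 Tested at 5 concentrations; 48 h exposure; 96-well plates; endpoints linearly interpolated, else capped at highest concentration. At the TGI there is no net growth.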
# Legend:
# Test in all cases: growth of human tumour cells (NCI), 48 h
# 786-0 renal = tested on: 786-0 renal
# A498 renal = tested on: A498 renal
# A549 NSCLC = tested on: A549 NSCLC
# ACHN renal = tested on: ACHN renal
# BT-549 breast = tested on: BT-549 breast
# CAKI-1 renal = tested on: CAKI-1 renal
# CCRF-CEM leukemia = tested on: CCRF-CEM leukemia
# COLO 205 colon = tested on: COLO 205 colon
# DU-145 prostate = tested on: DU-145 prostate
# EKVX NSCLC = tested on: EKVX NSCLC
# HCC-2998 colon = tested on: HCC-2998 colon
# HCT-116 colon = tested on: HCT-116 colon
# HCT-15 colon = tested on: HCT-15 colon
# HL-60(TB) leukemia = tested on: HL-60(TB) leukemia
# HOP-62 NSCLC = tested on: HOP-62 NSCLC
# HOP-92 NSCLC = tested on: HOP-92 NSCLC
# HS 578T breast = tested on: HS 578T breast
# HT29 colon = tested on: HT29 colon
# IGROV1 ovarian = tested on: IGROV1 ovarian
# K-562 leukemia = tested on: K-562 leukemia
# KM12 colon = tested on: KM12 colon
# LOX IMVI melanoma = tested on: LOX IMVI melanoma
# M14 melanoma = tested on: M14 melanoma
# MALME-3M melanoma = tested on: MALME-3M melanoma
# MCF7 breast = tested on: MCF7 breast
# MDA-MB-231 breast = tested on: MDA-MB-231 breast
# MDA-MB-435 = tested on: MDA-MB-435
# MDA-N = tested on: MDA-N
# MOLT-4 leukemia = tested on: MOLT-4 leukemia
# NCI-H226 lung = tested on: NCI-H226 lung
# NCI-H23 lung = tested on: NCI-H23 lung
# NCI-H460 lung = tested on: NCI-H460 lung
# NCI-H522 lung = tested on: NCI-H522 lung
# NCI/ADR-RES ovarian = tested on: NCI/ADR-RES ovarian
# OVCAR-3 ovarian = tested on: OVCAR-3 ovarian
# OVCAR-4 ovarian = tested on: OVCAR-4 ovarian
# OVCAR-5 ovarian = tested on: OVCAR-5 ovarian
# OVCAR-8 ovarian = tested on: OVCAR-8 ovarian
# PC-3 prostate = tested on: PC-3 prostate
# RPMI-8226 leukemia = tested on: RPMI-8226 leukemia
# RXF 393 renal = tested on: RXF 393 renal
# SF-268 CNS = tested on: SF-268 CNS
# SF-295 CNS = tested on: SF-295 CNS
# SF-539 CNS = tested on: SF-539 CNS
# SK-MEL-2 melanoma = tested on: SK-MEL-2 melanoma
# SK-MEL-28 melanoma = tested on: SK-MEL-28 melanoma
# SK-MEL-5 melanoma = tested on: SK-MEL-5 melanoma
# SK-OV-3 ovarian = tested on: SK-OV-3 ovarian
# SN12C renal = tested on: SN12C renal
# SNB-19 CNS = tested on: SNB-19 CNS
# SNB-75 CNS = tested on: SNB-75 CNS
# SW-620 colon = tested on: SW-620 colon
# T-47D breast = tested on: T-47D breast
# TK-10 renal = tested on: TK-10 renal
# U251 CNS = tested on: U251 CNS
# UACC-257 melanoma = tested on: UACC-257 melanoma
# UACC-62 melanoma = tested on: UACC-62 melanoma
# UO-31 renal = tested on: UO-31 renal
compound,measurement,setting,value
Oc1ccc(Br)cc1C=Nc1cccc(C(F)(F)F)c1,TGI,786-0 renal,> 100 µM
same,TGI,A498 renal,> 100 µM
same,TGI,A549 NSCLC,> 100 µM
same,TGI,ACHN renal,> 100 µM
same,TGI,BT-549 breast,98.3 µM
same,TGI,CAKI-1 renal,> 100 µM
same,TGI,CCRF-CEM leukemia,28.5 µM
same,TGI,COLO 205 colon,> 100 µM
same,TGI,DU-145 prostate,> 100 µM
same,TGI,EKVX NSCLC,> 100 µM
same,TGI,HCC-2998 colon,60.1 µM
same,TGI,HCT-116 colon,> 100 µM
same,TGI,HCT-15 colon,> 100 µM
same,TGI,HL-60(TB) leukemia,34.4 µM
same,TGI,HOP-62 NSCLC,> 100 µM
same,TGI,HOP-92 NSCLC,> 100 µM
same,TGI,HS 578T breast,83.3 µM
same,TGI,HT29 colon,> 100 µM
same,TGI,IGROV1 ovarian,> 100 µM
same,TGI,K-562 leukemia,> 100 µM
same,TGI,KM12 colon,> 100 µM
same,TGI,LOX IMVI melanoma,> 100 µM
same,TGI,M14 melanoma,48.6 µM
same,TGI,MALME-3M melanoma,75.5 µM
same,TGI,MCF7 breast,> 100 µM
same,TGI,MDA-MB-231 breast,> 100 µM
same,TGI,MDA-MB-435,> 100 µM
same,TGI,MDA-N,> 100 µM
same,TGI,MOLT-4 leukemia,83.8 µM
same,TGI,NCI-H226 lung,90.6 µM
same,TGI,NCI-H23 lung,> 100 µM
same,TGI,NCI-H460 lung,> 100 µM
same,TGI,NCI-H522 lung,> 100 µM
same,TGI,NCI/ADR-RES ovarian,> 100 µM
same,TGI,OVCAR-3 ovarian,> 100 µM
same,TGI,OVCAR-4 ovarian,> 100 µM
same,TGI,OVCAR-5 ovarian,> 100 µM
same,TGI,OVCAR-8 ovarian,> 100 µM
same,TGI,PC-3 prostate,33.3 µM
same,TGI,RPMI-8226 leukemia,> 100 µM
same,TGI,RXF 393 renal,> 100 µM
same,TGI,SF-268 CNS,> 100 µM
same,TGI,SF-295 CNS,> 100 µM
same,TGI,SF-539 CNS,99.1 µM
same,TGI,SK-MEL-2 melanoma,49 µM
same,TGI,SK-MEL-28 melanoma,> 100 µM
same,TGI,SK-MEL-5 melanoma,> 100 µM
same,TGI,SK-OV-3 ovarian,> 100 µM
same,TGI,SN12C renal,> 100 µM
same,TGI,SNB-19 CNS,> 100 µM
same,TGI,SNB-75 CNS,> 100 µM
same,TGI,SW-620 colon,> 100 µM
same,TGI,T-47D breast,> 100 µM
same,TGI,TK-10 renal,> 100 µM
same,TGI,U251 CNS,45.1 µM
same,TGI,UACC-257 melanoma,> 100 µM
same,TGI,UACC-62 melanoma,71.1 µM
same,TGI,UO-31 renal,> 100 µM
